Our source for the TGI values is PubChem BioAssay (NCI).

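Dose response: 5 concentrations. Exposure: 48 h. Format: 96-well plates. Endpoint: linear interpolation; highest concentration if not reached. TGI denotes the concentration required for complete inhibition of growth.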 Where only a bound is given, the exact number is not on record here.

Holding throughout (experiment): NCI anticancer screen, dose series, 48 h
For assay [1], the system named is A549 NSCLC.
The subject of assay [2] is ACHN renal.
The subject of assay [3] is DU-145 prostate.
Assay [4] relates to HCT-116 colon.
Assay [5] concerns HL-60(TB) leukemia.
In assay [6] the test system is HOP-92 NSCLC.
The subject of assay [7] is KM12 colon.
Assay [8] concerns OVCAR-5 ovarian.
The subject of assay [9] is PC-3 prostate.
The subject of assay [10] is SN12C renal.
Assay [11] deals with SR leukemia.
Assay [12] deals with T-47D breast.
For assay [13], the system named is UO-31 renal.
The subject of assay [14] is RXF 393 renal.
Assay [15] deals with MDA-N.

As to `Nc1nc(N)c2ncn(Cc3ccccc3CO)c2n1`, the TGI in [1], in assay [2], in assay [3], in [4], in assay [5] and in assay [6] was more than 100 µM in each case. Moreover, the TGI in assay [7], in [8], in assay [9], in assay [10], in assay [11] and in assay [12] was more than 100 µM throughout. Besides, the TGI in assay [13] was more than 100 µM.

Consider `O=C(CC(=O)n1nc(-c2ccccc2)c(N=Nc2ccc([N+](=O)[O-])cc2)c1-c1ccccc1)Nc1ccc(Cl)cc1`, for which the TGI is 56.3 µM in assay [1]; 19.2 µM in [2]; more than 100 µM in assay [4]; 70.4 µM in assay [5]; 52.3 µM in assay [6]; more than 100 µM in assay [7]. Moreover, the TGI in assay [8] is more than 100 µM; in assay [14] it was 51.3 µM; in assay [10], more than 100 µM; in [11] it was more than 100 µM; in assay [13], 45.1 µM.

Turning to `COc1cc(Br)c(/C=N/N=C(\N)NO)cc1OC`, the TGI in assay [1] was 50.2 µM; in [2], 50.6 µM; in assay [4], 43.8 µM; in [5] it was 52.6 µM; in [6] it was 90.5 µM; in assay [7] it was more than 100 µM. The TGI was more than 100 µM in [8]; 54.4 µM in assay [14]; 83.2 µM in [10]; more than 100 µM in assay [11]; more than 100 µM in [13].

As for `COc1cc(Br)c(C=Nc2cccc3ccc(OS(=O)(=O)c4ccc([N+](=O)[O-])cc4)cc23)cc1OC`, the TGI in [1], in [2], in assay [4], in assay [6], in assay [7] and in assay [8] was more than 100 µM throughout. Also, the TGI in assay [14], in assay [10], in assay [11] and in assay [13] was more than 100 µM in each case.

`COc1cc(C(C)c2cc3c(cc2OCCCCCOc2cc4c(cc2C(C)c2cc(OC)c(OC)c(OC)c2)OCO4)OCO3)cc(OC)c1OC` (stereo not given): the TGI in assay [1], in [2], in assay [4], in assay [5], in assay [7] and in assay [8] was more than 100 µM in each case. Also, the TGI in assay [14], in assay [10], in assay [11] and in [13] was more than 100 µM in each case.

For the molecule `Cc1cc(O)c(C(O)c2ccccn2)cc1O` (stereo not given), the TGI in [1] was more than 100 µM; in assay [2], 18.4 µM; in assay [3] it was more than 100 µM; in [4], 31.2 µM; in [5] it was 53 µM; in assay [7] it was 82.3 µM. Besides, the TGI in [15] was determined as 36.2 µM; in [8], 33.8 µM; in assay [9], 29.1 µM; in assay [14], 30.2 µM; in [10] it was 43.7 µM; in assay [11], 10.2 µM. The molecule also came in with a TGI in assay [13] of 33.5 µM.

`CN(C)/C=N/S(=O)(=O)c1nn2c(C=O)c(-c3ccc(-c4ccccc4)cc3)nc2s1`: the TGI in assay [1] is more than 44.5 µM; in [2], 3.18 µM; in assay [3], 6.13 µM; in [4], 2.99 µM; in [5], 0.342 µM; in [6], 10.1 µM. Also, the TGI in assay [7] was 7.36 µM; in [8], 25.3 µM; in [9], 5.07 µM; in assay [14], 4.49 µM; in assay [10] it was 3.19 µM; in assay [11] it was 1.89 µM. Also, the TGI was 5.57 µM in assay [12] and 2.73 µM in assay [13].

On to `Fc1nc(-c2c3ccccc3c3sc4ccccc4n23)nc(N2CCOCCOCCOCCOCC2)n1`, for which the TGI is more than 100 µM in assay [1]; more than 100 µM in assay [2]; more than 100 µM in [3]; more than 100 µM in assay [4]; 93 µM in assay [6]; more than 100 µM in [7]. Besides, the TGI in [15] was more than 100 µM; in [8], more than 100 µM; in assay [9] it was more than 100 µM; in assay [14], 51.6 µM; in assay [10] it was more than 100 µM; in assay [11], 68.6 µM. In assay [13], this molecule yielded a TGI of more than 100 µM.

For `c1ccc(Nc2nnc(-c3ccccc3Nc3ccccc3-c3nnc(Nc4ccccc4)s3)s2)cc1`, the TGI in assay [2], in [3], in assay [4], in assay [5], in [6] and in assay [7] was more than 100 µM throughout. The TGI in assay [15], in assay [8], in [9], in assay [14] and in assay [13] was more than 100 µM each time.

In the case of `c1ccc2c(c1)n1c(N3CCCC3)[n+]3ccccc3c1c1c3cccc[n+]3c(N3CCCC3)n21`, the TGI in assay [1], in assay [2], in [3], in [4], in assay [5] and in assay [6] was more than 100 µM in each case. In addition, the TGI in assay [7], in [8], in assay [9], in assay [14], in [10] and in [11] was more than 100 µM in each case. The molecule further gave a TGI in assay [12] of more than 100 µM.

Regarding `CC(=O)NC1=C(NCCO)C(=O)c2ccccc2C1=O`, the TGI in assay [1], in assay [2], in [4], in assay [5], in [7] and in assay [14] was more than 50 µM each time. In addition, the TGI in assay [10], in [11] and in assay [13] was more than 50 µM throughout.

On to `CN1CC[C@@]2(c3cccc(O)c3)CC(=O)/C(=C/c3ccc(Cl)c(Cl)c3)[C@H]1C2`, for which the TGI in assay [1] turned out to be 11.5 µM; in assay [2] it was 3.38 µM; in assay [3], 16.4 µM; in assay [5] it was 3.82 µM; in assay [6], 18.1 µM; in [15], 3.77 µM. Besides, the TGI in assay [8] was 14.4 µM; in assay [9] it was 3.07 µM; in assay [14], 5.62 µM; in assay [10], 3.89 µM; in assay [11] it was 5.92 µM; in assay [13], 4.33 µM.
